Activity calls are given as the source filed them. The calls are words filed in the database; no cut-off is given here.

The record followed here is ChEMBL document CHEMBL5257079, “Discovery of FXR/PPARγ dual partial agonist” (Bioorg Med Chem, 2023).

Series [1] deals with T1, Bile acid receptor (Homo sapiens, UniProt Q96RI1).
T1 sequence (Q96RI1 whole entry): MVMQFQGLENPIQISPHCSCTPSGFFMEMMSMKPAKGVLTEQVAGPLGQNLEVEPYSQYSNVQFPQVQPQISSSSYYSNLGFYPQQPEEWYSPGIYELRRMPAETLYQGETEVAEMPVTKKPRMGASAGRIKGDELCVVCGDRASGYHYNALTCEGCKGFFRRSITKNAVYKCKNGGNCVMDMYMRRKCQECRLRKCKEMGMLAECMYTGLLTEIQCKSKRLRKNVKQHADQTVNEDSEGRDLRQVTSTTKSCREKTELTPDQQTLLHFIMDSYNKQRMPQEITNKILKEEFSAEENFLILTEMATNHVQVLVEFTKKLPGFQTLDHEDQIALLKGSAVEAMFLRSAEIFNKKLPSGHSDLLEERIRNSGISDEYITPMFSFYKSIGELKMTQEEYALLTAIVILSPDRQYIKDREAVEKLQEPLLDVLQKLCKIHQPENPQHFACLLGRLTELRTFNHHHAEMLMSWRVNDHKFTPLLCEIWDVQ
In words: Partial agonist activity at FXR-LBD-GST (unknown origin) by TR-FRET assay. The following applies: read-out: EC50.

For series [2], the target named is T2, Retinoic acid receptor RXR-alpha (Homo sapiens) (UniProt P19793).
T2 sequence (whole entry): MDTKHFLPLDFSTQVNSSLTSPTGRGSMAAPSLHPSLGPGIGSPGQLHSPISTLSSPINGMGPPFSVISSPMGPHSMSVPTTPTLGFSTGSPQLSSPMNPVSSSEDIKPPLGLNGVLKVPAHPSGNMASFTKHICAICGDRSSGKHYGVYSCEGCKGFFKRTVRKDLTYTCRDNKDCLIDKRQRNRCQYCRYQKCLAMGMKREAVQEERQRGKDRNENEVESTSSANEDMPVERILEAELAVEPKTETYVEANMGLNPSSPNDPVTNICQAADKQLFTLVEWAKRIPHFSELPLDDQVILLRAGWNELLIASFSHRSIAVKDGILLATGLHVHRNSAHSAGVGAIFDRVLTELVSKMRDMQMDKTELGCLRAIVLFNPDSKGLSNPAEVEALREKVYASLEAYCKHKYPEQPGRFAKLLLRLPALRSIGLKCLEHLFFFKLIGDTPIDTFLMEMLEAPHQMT
Kind of series: Activation of RXRalpha (unknown origin) at 10 uM.

Series [3] concerns the target T3, G-protein coupled bile acid receptor 1 (Homo sapiens) (UniProt Q8TDU6).
T3 sequence (whole entry): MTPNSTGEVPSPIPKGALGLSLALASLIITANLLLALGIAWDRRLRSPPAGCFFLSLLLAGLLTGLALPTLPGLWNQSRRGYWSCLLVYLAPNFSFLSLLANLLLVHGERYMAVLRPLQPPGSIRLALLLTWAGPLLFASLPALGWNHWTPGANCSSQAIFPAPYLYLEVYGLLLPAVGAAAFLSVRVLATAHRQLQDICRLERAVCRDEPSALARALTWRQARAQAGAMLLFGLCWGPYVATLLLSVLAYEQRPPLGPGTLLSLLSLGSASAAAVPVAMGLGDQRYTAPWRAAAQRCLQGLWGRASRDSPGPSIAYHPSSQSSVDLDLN
In words: Activation of TGR5 (unknown origin) at 10 uM.

The target of series [4] is T4, Peroxisome proliferator-activated receptor gamma (Mus musculus) (UniProt P37238).
T4 sequence (whole entry): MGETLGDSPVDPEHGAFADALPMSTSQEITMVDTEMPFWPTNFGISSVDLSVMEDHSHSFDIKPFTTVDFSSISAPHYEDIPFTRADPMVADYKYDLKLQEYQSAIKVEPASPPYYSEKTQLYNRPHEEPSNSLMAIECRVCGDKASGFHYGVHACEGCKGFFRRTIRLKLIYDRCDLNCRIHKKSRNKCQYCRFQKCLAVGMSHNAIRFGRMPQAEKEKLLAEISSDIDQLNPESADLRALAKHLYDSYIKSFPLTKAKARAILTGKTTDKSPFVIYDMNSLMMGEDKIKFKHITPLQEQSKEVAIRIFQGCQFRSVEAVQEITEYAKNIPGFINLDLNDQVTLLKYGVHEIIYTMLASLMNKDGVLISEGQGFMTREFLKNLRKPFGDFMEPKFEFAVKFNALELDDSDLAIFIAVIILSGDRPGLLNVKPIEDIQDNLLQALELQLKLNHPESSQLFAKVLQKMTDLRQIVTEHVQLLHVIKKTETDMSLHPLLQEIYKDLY
In words: Inhibition of TNFalpha stimulated PPARgamma phosphorylation at Ser273 residue in mouse 3T3-L1 cells preincubated for 60 mins followed by TNFalpha addition for 90 mins by Western blot analysis. It is filed as cell-based. The following applies: time 150.0 min.

The nature of series [5]: Metabolic stability in mouse liver microsomes assessed as parent compound remaining after 30 mins. It is filed as ADME, Microsome. The following applies: read-out: Stability.
Series [6] deals with T5, Bile acid receptor (Homo sapiens) (UniProt Q96RI1).
T5 sequence (whole entry): T1 sequence (Q96RI1 whole entry)
In words: Antagonist activity at FXR-LBD-GST (unknown origin) in presence of GW4064 relative to control. Also noted: scale not given: the % may be the effect or the level left.

Series [7] has as its target T1, Bile acid receptor. Kind of series: Antagonist activity at FXR-LBD-GST (unknown origin) in presence of GW4064.
Series [8] concerns the target T6, Oxysterols receptor LXR-alpha (Homo sapiens) (UniProt Q13133).
T6 sequence (whole entry): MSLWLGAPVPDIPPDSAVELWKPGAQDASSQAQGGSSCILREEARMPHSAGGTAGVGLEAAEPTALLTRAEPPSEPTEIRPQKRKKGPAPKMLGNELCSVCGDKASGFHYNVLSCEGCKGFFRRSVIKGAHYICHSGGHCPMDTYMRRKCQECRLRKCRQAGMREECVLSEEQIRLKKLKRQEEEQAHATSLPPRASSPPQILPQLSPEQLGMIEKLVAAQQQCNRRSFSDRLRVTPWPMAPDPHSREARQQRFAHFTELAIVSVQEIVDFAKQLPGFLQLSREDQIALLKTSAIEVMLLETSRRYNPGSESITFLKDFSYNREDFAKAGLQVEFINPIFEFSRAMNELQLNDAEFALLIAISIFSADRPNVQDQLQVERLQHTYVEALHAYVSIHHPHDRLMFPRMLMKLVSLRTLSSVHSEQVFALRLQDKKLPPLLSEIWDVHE
Kind of series: Activation of LXR alpha (unknown origin) at 10 uM.

`CC(C)(C)c1ccc(-n2cnc3c(NC(=O)Cc4ccc(C(=O)O)cc4)cccc32)cc1`: in series [1], the EC50 was 0.25 µM. For the same compound, the result in series [2], in series [3] and in series [8] was inactive. For the same compound, the inhibition result in series [4] is “Dose-Dependent Effect”. The remaining at 0.5 h in series [5] came out at 69.5%. Moreover, the Activity in series [6] came to 30%. Further, in series [7], the IC50 was found to be 20.7 µM.
